Data published in patent US20040024024A1, “Aromatic sulfone hydroxamates and their use as protease inhibitors” (priority 2001, published 2004).

Assays:
Human recombinant MMP-2 = biological target: T1, Human recombinant MMP-2 (Homo sapiens, UniProt P08253); assay: In vitro MMP inhibition, Ki determination (fluorogenic substrate II); type: biochemical; details: value in parentheses
T1 construct: made in house; host or cells: MMP-2-transfected p2AHT2 cells
T1 sequence (P08253 110-660): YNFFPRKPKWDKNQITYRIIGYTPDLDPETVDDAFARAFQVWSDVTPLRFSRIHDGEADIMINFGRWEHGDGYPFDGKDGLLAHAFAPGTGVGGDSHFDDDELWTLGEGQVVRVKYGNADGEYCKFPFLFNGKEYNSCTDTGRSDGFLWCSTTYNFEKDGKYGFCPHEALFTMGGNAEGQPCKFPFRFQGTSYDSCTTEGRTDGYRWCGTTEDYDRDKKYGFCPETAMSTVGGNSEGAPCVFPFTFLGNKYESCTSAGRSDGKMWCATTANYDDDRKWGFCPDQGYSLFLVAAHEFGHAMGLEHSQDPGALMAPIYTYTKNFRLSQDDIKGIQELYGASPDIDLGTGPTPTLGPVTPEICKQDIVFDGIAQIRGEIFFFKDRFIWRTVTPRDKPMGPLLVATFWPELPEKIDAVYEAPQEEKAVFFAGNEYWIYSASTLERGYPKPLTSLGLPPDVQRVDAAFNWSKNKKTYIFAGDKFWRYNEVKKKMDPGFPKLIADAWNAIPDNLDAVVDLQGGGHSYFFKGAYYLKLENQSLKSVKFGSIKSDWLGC

Human recombinant MMP-9 = biological target: T2, Human recombinant MMP-9 (Homo sapiens, UniProt P14780); assay: as above; type: biochemical; details: value in parentheses
T2 construct: made in house; host or cells: MMP-9-transfected HT1080 cells (spent media)
How it was run: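 MMP-9 proenzyme purified from transfected HT1080 cell media, activated with APMA, trypsin or recombinant MMP-3; hydroxamates diluted in pH 7.5 Tris/NaCl/CaCl2 buffer. Cleavage of 4 μM MCA/Dpa substrate II followed by fluorescence (ex 330/em 420 nm), 1 h at room temperature. Ki from Morrison-equation fit, substrate at/below Km, uncorrected.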

T2 sequence (P14780 107-707 limits assumed): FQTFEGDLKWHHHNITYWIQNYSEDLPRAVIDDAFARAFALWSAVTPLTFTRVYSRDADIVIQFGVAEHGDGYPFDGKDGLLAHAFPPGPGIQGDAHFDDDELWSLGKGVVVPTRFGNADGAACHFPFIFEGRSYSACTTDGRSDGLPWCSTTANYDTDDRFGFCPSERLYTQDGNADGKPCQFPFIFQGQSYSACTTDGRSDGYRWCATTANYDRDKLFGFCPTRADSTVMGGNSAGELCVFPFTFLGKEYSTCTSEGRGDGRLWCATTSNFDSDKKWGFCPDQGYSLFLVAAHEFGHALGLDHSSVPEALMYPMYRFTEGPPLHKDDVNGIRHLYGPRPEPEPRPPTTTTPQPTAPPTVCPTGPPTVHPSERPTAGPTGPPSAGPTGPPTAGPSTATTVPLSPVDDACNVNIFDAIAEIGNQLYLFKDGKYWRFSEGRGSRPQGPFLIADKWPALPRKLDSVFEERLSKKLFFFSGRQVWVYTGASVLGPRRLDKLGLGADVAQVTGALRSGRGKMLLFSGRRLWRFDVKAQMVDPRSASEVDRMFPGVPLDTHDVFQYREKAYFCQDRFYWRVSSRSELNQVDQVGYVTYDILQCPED

Compound | Ki (Human recombinant MMP-2) | Ki (Human recombinant MMP-9)
CCN1CCC(C(=O)NO)(S(=O)(=O)c2ccc(OCCCc3cccc(-c4ccc(Cl)cc4)c3)cc2)CC1 [Example 526] | 1680 nM | 2070 nM
Cc1ccc(NC(=O)CCCOc2ccc(S(=O)(=O)C3(C(=O)NO)CCOCC3)cc2)cc1I [Example 527] | 21.3 nM | 30.4 nM
CCC(=O)c1cccc(CCCOc2ccc(S(=O)(=O)C3(C(=O)NO)CCOCC3)cc2)c1 [Example 528] | 83.5 nM | 238 nM
O=C(NO)C1(S(=O)(=O)c2ccc(OCCCc3cccc(-c4ccc(O)cc4)c3)cc2)CCOCC1 [Example 529] | 3550 nM | 1870 nM
O=C(NO)C1(S(=O)(=O)c2ccc(OCCCc3cccc(-c4cccc(O)c4)c3)cc2)CCOCC1 [Example 530] | 699 nM | 220 nM
O=C(NO)C1(S(=O)(=O)c2ccc(OCCc3ccc(-c4ccc(O)cc4)cc3)cc2)CCOCC1 [Example 531] | 337 nM | 774 nM
O=C(NO)C1(S(=O)(=O)c2ccc(OCCc3ccc(-c4cccc(O)c4)cc3)cc2)CCOCC1 [Example 532] | 739 nM | 1320 nM
CCCCc1ccc(CCCOc2ccc(S(=O)(=O)C3(C(=O)NO)CCOCC3)cc2)cn1 [Example 533] | 29.3 nM | 141 nM
CCCc1ccc(CCCOc2ccc(S(=O)(=O)C3(C(=O)NO)CCOCC3)cc2)cn1 [Example 534] | 25.4 nM | 324 nM
CCc1ccc(CCCOc2ccc(S(=O)(=O)C3(C(=O)NO)CCOCC3)cc2)cn1 [Example 535] | 23.2 nM | 128 nM
CN1CCC(C(=O)NO)(S(=O)(=O)c2ccc(SCCNC(=O)c3cc4ccccc4o3)cc2)CC1 [Example 536] | 744 nM | 3400 nM
COCCN1CCC(C(=O)NO)(S(=O)(=O)c2ccc(OCCc3cccc(-c4ccncc4)c3)cc2)CC1 [Example 538] | 24.6 nM | 117 nM
COCCN1CCC(C(=O)NO)(S(=O)(=O)c2ccc(OCCc3cccc(-c4cccnc4)c3)cc2)CC1 [Example 539] | 38.6 nM | 85.5 nM
COCCN1CCC(C(=O)NO)(S(=O)(=O)c2ccc(OCCc3cccc(-c4ccccc4F)c3)cc2)CC1 [Example 540] | 270 nM | 689 nM
O=C(NCCSc1ccc(S(=O)(=O)C2(C(=O)NO)CCN(C3CC3)CC2)cc1)c1nc2ccccc2s1 [Example 541] | 302 nM | 269 nM
O=C(NCCSc1ccc(S(=O)(=O)C2(C(=O)NO)CCN(C3CC3)CC2)cc1)c1cc2ccccc2o1 [Example 542] | 234 nM | 922 nM
COCCN1CCC(C(=O)NO)(S(=O)(=O)c2ccc(OCCc3ccc(-c4ccc(C#N)cc4)cc3)cc2)CC1 [Example 543] | 124 nM | 207 nM
COCCN1CCC(C(=O)NO)(S(=O)(=O)c2ccc(OCCc3cccc(-c4ccc(F)cc4)c3)cc2)CC1 [Example 544] | 302 nM | 787 nM

Compound | Ki (Human recombinant MMP-2) | Ki (Human recombinant MMP-9)
COCCN1CCC(C(=O)NO)(S(=O)(=O)c2ccc(OCCc3cccc(-c4cccc(F)c4)c3)cc2)CC1 [Example 545] | 310 nM | 923 nM
COCCN1CCC(C(=O)NO)(S(=O)(=O)c2ccc(OCCc3cccc(-c4ccc(F)cc4F)c3)cc2)CC1 [Example 546] | 426 nM | 1270 nM
COCCN1CCC(C(=O)NO)(S(=O)(=O)c2ccc(OCCc3cccc(-c4ccc(Cl)cc4)c3)cc2)CC1 [Example 547] | 727 nM | 1860 nM
COCCN1CCC(C(=O)NO)(S(=O)(=O)c2ccc(OCCc3cccc(-c4ccccn4)c3)cc2)CC1 [Example 548] | 1.58 nM | 279 nM
COCCN1CCC(C(=O)NO)(S(=O)(=O)c2ccc(OCCc3cccc(-c4ccc(F)c(F)c4)c3)cc2)CC1 [Example 549] | 504 nM | 1770 nM
CCCc1ccc(COc2ccc(S(=O)(=O)C3(C(=O)NO)CCOCC3)cc2)cn1 [Example 550] | 5.49 nM | 7.51 nM
CCCCc1ccc(COc2ccc(S(=O)(=O)C3(C(=O)NO)CCOCC3)cc2)cn1 [Example 551] | 5.07 nM | 48.2 nM
CCc1ccc(COc2ccc(S(=O)(=O)C3(C(=O)NO)CCOCC3)cc2)cn1 [Example 552] | 4.94 nM | 2.22 nM
COCCN1CCC(C(=O)NO)(S(=O)(=O)c2ccc(OCCNC(=O)c3cc4ccccc4o3)cc2)CC1 [Example 553] | 7.8 nM | 71.2 nM
O=C(NO)C1(S(=O)(=O)c2ccc(OCCOc3cncnc3)cc2)CCOCC1 [Example 554] | 61.3 nM | 442 nM
O=C(NO)C1(S(=O)(=O)c2ccc(OCCCOCc3ccncc3)cc2)CCOCC1 [Example 555] | 3.38 nM | 50 nM
O=C(NO)C1(S(=O)(=O)c2ccc(OCCc3ccccn3)cc2)CCOCC1 [Example 556] | 68.1 nM | 212 nM
O=C(NO)C1(S(=O)(=O)c2ccc(OCCc3cccnc3)cc2)CCOCC1 [Example 557] | 6.46 nM | 33.6 nM
O=C(NO)C1(S(=O)(=O)c2ccc(OCCCOc3cncnc3)cc2)CCOCC1 [Example 559] | 11.7 nM | 57.6 nM
O=C(NO)C1(S(=O)(=O)c2ccc(OCCCOc3cccnc3)cc2)CCOCC1 [Example 560] | 10.3 nM | 7.17 nM
O=C(NCCOc1ccc(S(=O)(=O)C2(C(=O)NO)CCOCC2)cc1)c1c[nH]c2ccccc12 [Example 562] | 241 nM | 786 nM
O=C(NCCSc1ccc(S(=O)(=O)C2(C(=O)NO)CCOCC2)cc1)c1nc2ccccc2s1 [Example 598] | 599 nM | 705 nM
C#Cc1ccc(-c2cccc(CCCOc3ccc(S(=O)(=O)C4(C(=O)NO)CCN(CCOC)CC4)cc3)c2)cc1 [Example 646] | 289 nM | 76.2 nM
